Tests used:
Type in all cases: in vivo
Details in all cases: evaluated after 13 days
[1] = system: Amaranthus retoflexus (AMARE); test: Post-emergence herbicide test, glasshouse, percentage damage
Protocol: (§1) Seeds of a variety of test species are sown in standard soil in pots (Lolium perenne (LOLPE), Solanum nigrum (SOLNI), Amaranthus retoflexus (AMARE), Setaria faberi (SETFA), Echinochloa crus-galli (ECHCG), Ipomoea hederacea (IPOHE)). After cultivation for one day (pre-emergence) or after 8 days cultivation (post-emergence) under controlled conditions in a glasshouse (at 24/16° C., day/night; 14 hours light; 65% humidity), the plants are sprayed with an aqueous spray solution derived from the formulation of the technical active ingredient in acetone/water (50:50) solution containing 0.5% Tween 20 (polyoxyethelyene sorbitan monolaurate, CAS RN 9005-64-5). Compounds are applied at 500 g/ha unless otherwise stated. The test plants are then grown in a glasshouse under controlled conditions in a glasshouse (at 24/16° C., day/night; 14 hours light; 65% humidity) and watered twice daily. After 13 days for pre and post-emergence, the test is evaluated for the percentage damage caused to the plant. The biological activities are shown in the following table on a five point scale (5=81-100%; 4=61-80%; 3=41-60%; 2=21-40%; 1=0-20%).

[2] = system: Echinochloa crus-galli (ECHCG); test: as above
Protocol: as §1

[3] = system: Ipomoea hederacea (IPOHE); test: as above
Protocol: as §1

Lolium perenne (LOLPE) [4] = test: as above
Protocol: as §1

Setaria faberi (SETFA) [5] = test: as above
Protocol: as §1

Solanum nigrum (SOLNI) [6] = test: as above
Protocol: as §1

[7] = system: Amaranthus retoflexus (AMARE); test: Pre-emergence herbicide test, glasshouse, percentage damage
Protocol: as §1

[8] = system: Echinochloa crus-galli (ECHCG); test: as above
Protocol: as §1

[9] = system: Ipomoea hederacea (IPOHE); test: as above
Protocol: as §1

Lolium perenne (LOLPE) [10] = test: as above
Protocol: as §1

Setaria faberi (SETFA) [11] = test: as above
Protocol: as §1

Solanum nigrum (SOLNI) [12] = test: as above
Protocol: as §1

Row | Structure (SMILES) | percentage damage caused to the plant, AMARE ([1]; 1000 g/ha) | percentage damage caused to the plant, ECHCG ([2]; 1000 g/ha) | percentage damage caused to the plant, IPOHE ([3]; 1000 g/ha) | percentage damage caused to the plant, LOLPE (Lolium perenne (LOLPE) [4]; 1000 g/ha) | percentage damage caused to the plant, SETFA (Setaria faberi (SETFA) [5]; 1000 g/ha) | percentage damage caused to the plant, SOLNI (Solanum nigrum (SOLNI) [6]; 1000 g/ha) | Pre-emergence Test AMARE percentage damage (five point scale) ([7]; rate 1000 g/ha) | Pre-emergence Test ECHCG percentage damage (five point scale) ([8]; rate 1000 g/ha) | Pre-emergence Test IPOHE percentage damage (five point scale) ([9]; rate 1000 g/ha) | Pre-emergence Test LOLPE percentage damage (five point scale) (Lolium perenne (LOLPE) [10]; rate 1000 g/ha) | Pre-emergence Test SETFA percentage damage (five point scale) (Setaria faberi (SETFA) [11]; rate 1000 g/ha) | Pre-emergence Test SOLNI percentage damage (five point scale) (Solanum nigrum (SOLNI) [12]; rate 1000 g/ha) | further results
1 | N#Cc1ccc(Oc2ccccc2-n2cc(C(F)(F)F)cn2)nc1 [Compound A19] | 5 (5=81-100%) | 5 (5=81-100%) | 5 (5=81-100%) | 5 (5=81-100%) | 5 (5=81-100%) | 5 (5=81-100%) | 5 (5=81-100%) | 5 (5=81-100%) | 5 (5=81-100%) | 5 (5=81-100%) | 5 (5=81-100%) | 5 (5=81-100%) | –
2 | Fc1cc(Br)cnc1Oc1cccc(F)c1-c1cc(C(F)F)no1 [Compound A20] | 5 (5=81-100%) | 4 (4=61-80%) | 5 (5=81-100%) | 4 (4=61-80%) | 4 (4=61-80%) | 5 (5=81-100%) | 4 (4=61-80%) | 5 (5=81-100%) | 3 (3=41-60%) | 5 (5=81-100%) | 5 (5=81-100%) | 3 (3=41-60%) | –
3 | Fc1cc(C(F)(F)F)cnc1Oc1cccc(F)c1-c1cc(C(F)F)no1 [Compound A21] | 4 (4=61-80%) | 4 (4=61-80%) | 3 (3=41-60%) | 3 (3=41-60%) | 4 (4=61-80%) | 3 (3=41-60%) | 5 (5=81-100%) | 5 (5=81-100%) | 2 (2=21-40%) | 4 (4=61-80%) | 5 (5=81-100%) | 2 (2=21-40%) | –
4 | O=[N+]([O-])c1cnc(Oc2cccc(F)c2-c2cc(C(F)F)no2)c(F)c1 [Compound A22] | 4 (4=61-80%) | 2 (2=21-40%) | 3 (3=41-60%) | 2 (2=21-40%) | 3 (3=41-60%) | 4 (4=61-80%) | 5 (5=81-100%) | 3 (3=41-60%) | 1 (1=0-20%) | 1 (1=0-20%) | 3 (3=41-60%) | 1 (1=0-20%) | –
5 | N#Cc1cnc(Oc2cccc(F)c2-c2cc(C(F)F)no2)c(F)c1 [Compound A23] | 5 (5=81-100%) | 5 (5=81-100%) | 5 (5=81-100%) | 5 (5=81-100%) | 5 (5=81-100%) | 5 (5=81-100%) | 5 (5=81-100%) | 5 (5=81-100%) | 5 (5=81-100%) | 5 (5=81-100%) | 5 (5=81-100%) | 4 (4=61-80%) | –
6 | Fc1cc(Cl)cnc1Oc1ccccc1-n1cc(Cl)cn1 [Compound A24, 5-chloro-2-[2-(4-chloropyrazol-1-yl)phenoxy]-3-fluoro-pyridine] | 4 (4=61-80%) | 4 (4=61-80%) | 3 (3=41-60%) | 3 (3=41-60%) | 4 (4=61-80%) | 4 (4=61-80%) | 5 (5=81-100%) | 5 (5=81-100%) | 3 (3=41-60%) | 4 (4=61-80%) | 5 (5=81-100%) | 3 (3=41-60%) | –
7 | Fc1cc(Cl)cnc1Oc1cccc(F)c1-c1cc(C(F)(F)F)on1 [Compound A25, 3-[2-[(5-chloro-3-fluoro-2-pyridyl)oxy]-6-fluoro-phenyl]-5-(trifluoromethyl)isoxazole] | 5 (5=81-100%) | 4 (4=61-80%) | 4 (4=61-80%) | 5 (5=81-100%) | 5 (5=81-100%) | 5 (5=81-100%) | 5 (5=81-100%) | 5 (5=81-100%) | 5 (5=81-100%) | 5 (5=81-100%) | 5 (5=81-100%) | 5 (5=81-100%) | –
8 | N#Cc1cnn(-c2ccccc2Oc2ncc(Cl)cc2F)c1 [Compound A26] | 5 (5=81-100%) | 5 (5=81-100%) | 3 (3=41-60%) | 3 (3=41-60%) | 5 (5=81-100%) | 5 (5=81-100%) | 5 (5=81-100%) | 5 (5=81-100%) | 4 (4=61-80%) | 5 (5=81-100%) | 5 (5=81-100%) | 5 (5=81-100%) | –
9 | Fc1cc(Cl)cnc1Oc1ccccc1-n1cc(Br)cn1 [Compound A27] | – | – | – | – | – | – | – | – | – | – | – | – | percentage damage caused to the plant, AMARE ([1]; 250 g/ha): 4 (4=61-80%); percentage damage caused to the plant, ECHCG ([2]; 250 g/ha): 5 (5=81-100%); percentage damage caused to the plant, IPOHE ([3]; 250 g/ha): 2 (2=21-40%); percentage damage caused to the plant, LOLPE (Lolium perenne (LOLPE) [4]; 250 g/ha): 2 (2=21-40%); percentage damage caused to the plant, SETFA (Setaria faberi (SETFA) [5]; 250 g/ha): 5 (5=81-100%); percentage damage caused to the plant, SOLNI (Solanum nigrum (SOLNI) [6]; 250 g/ha): 5 (5=81-100%); Pre-emergence Test AMARE percentage damage (five point scale) ([7]; rate 250 g/ha): 5 (5=81-100%); Pre-emergence Test ECHCG percentage damage (five point scale) ([8]; rate 250 g/ha): 5 (5=81-100%); Pre-emergence Test IPOHE percentage damage (five point scale) ([9]; rate 250 g/ha): 1 (1=0-20%); Pre-emergence Test LOLPE percentage damage (five point scale) (Lolium perenne (LOLPE) [10]; rate 250 g/ha): 3 (3=41-60%); Pre-emergence Test SETFA percentage damage (five point scale) (Setaria faberi (SETFA) [11]; rate 250 g/ha): 4 (4=61-80%); Pre-emergence Test SOLNI percentage damage (five point scale) (Solanum nigrum (SOLNI) [12]; rate 250 g/ha): 5 (5=81-100%)
10 | Fc1cc(Cl)cnc1Oc1ccccc1-n1ccnc1 [Compound A28, 5-chloro-3-fluoro-2-(2-imidazol-1-ylphenoxy)pyridine] | 5 (5=81-100%) | 1 (1=0-20%) | 1 (1=0-20%) | 1 (1=0-20%) | 1 (1=0-20%) | 4 (4=61-80%) | 3 (3=41-60%) | 1 (1=0-20%) | 1 (1=0-20%) | 1 (1=0-20%) | 1 (1=0-20%) | 1 (1=0-20%) | –
11 | Fc1cc(Cl)cnc1Oc1ccccc1-n1cncn1 [Compound A29] | 4 (4=61-80%) | 1 (1=0-20%) | 2 (2=21-40%) | 1 (1=0-20%) | 2 (2=21-40%) | 4 (4=61-80%) | 5 (5=81-100%) | 1 (1=0-20%) | 1 (1=0-20%) | 1 (1=0-20%) | 4 (4=61-80%) | 3 (3=41-60%) | –

— US12227495B2, “Herbicidal compounds” (SYNGENTA CROP PROTECTION AG, priority 2018, dated 2025)
